Reference: PMC12550276 (Life Science Alliance, 2025)

What was measured:
[1] = biological target: T1, GBAv (Amydetes, UniProt A0A3F2YLV6, R337L); assay: HDX-MS, apo vs ligand-bound; format: binding; settings: 5 mM ATP together with 5 mM luciferin (not separable), 50 mM MgCl2, pD 7.5, 25°C
T1 construct: N-terminal His6-tag kept (no cleavage told), pET28b, E. coli BL21-CodonPlus-RIL; ~550 residues; monomer by SEC

[2] = biological target: T2, REPh (Phrixothrix hirtus, UniProt Q9U4U7, L334R); assay: HDX-MS, apo vs ligand-bound; format: binding; settings: 5 mM ATP together with 5 mM luciferin (not separable), 50 mM MgCl2, pD 7.5, 25°C
T2 construct: N-terminal His6-tag kept (no cleavage told), pET28b, E. coli BL21-CodonPlus-RIL; ~550 residues; higher oligomer by SEC (octamer in crystal)
T2 sequence (Q9U4U7 1-546 L334R): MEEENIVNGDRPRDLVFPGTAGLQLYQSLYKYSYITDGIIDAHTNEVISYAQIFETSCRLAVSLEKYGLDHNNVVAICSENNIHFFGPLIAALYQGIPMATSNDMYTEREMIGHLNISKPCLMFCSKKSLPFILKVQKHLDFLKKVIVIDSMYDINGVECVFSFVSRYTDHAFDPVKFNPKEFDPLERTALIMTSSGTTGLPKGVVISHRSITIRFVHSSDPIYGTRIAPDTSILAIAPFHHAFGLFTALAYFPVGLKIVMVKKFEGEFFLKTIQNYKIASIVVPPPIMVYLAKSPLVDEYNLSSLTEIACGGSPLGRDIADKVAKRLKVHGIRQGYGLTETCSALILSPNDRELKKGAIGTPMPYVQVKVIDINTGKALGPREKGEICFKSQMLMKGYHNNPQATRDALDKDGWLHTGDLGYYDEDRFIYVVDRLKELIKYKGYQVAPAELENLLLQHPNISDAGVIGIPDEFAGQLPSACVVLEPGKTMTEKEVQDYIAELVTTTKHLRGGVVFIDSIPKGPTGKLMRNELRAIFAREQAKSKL

T1 sequence (A0A3F2YLV6 entry or part of it R337L): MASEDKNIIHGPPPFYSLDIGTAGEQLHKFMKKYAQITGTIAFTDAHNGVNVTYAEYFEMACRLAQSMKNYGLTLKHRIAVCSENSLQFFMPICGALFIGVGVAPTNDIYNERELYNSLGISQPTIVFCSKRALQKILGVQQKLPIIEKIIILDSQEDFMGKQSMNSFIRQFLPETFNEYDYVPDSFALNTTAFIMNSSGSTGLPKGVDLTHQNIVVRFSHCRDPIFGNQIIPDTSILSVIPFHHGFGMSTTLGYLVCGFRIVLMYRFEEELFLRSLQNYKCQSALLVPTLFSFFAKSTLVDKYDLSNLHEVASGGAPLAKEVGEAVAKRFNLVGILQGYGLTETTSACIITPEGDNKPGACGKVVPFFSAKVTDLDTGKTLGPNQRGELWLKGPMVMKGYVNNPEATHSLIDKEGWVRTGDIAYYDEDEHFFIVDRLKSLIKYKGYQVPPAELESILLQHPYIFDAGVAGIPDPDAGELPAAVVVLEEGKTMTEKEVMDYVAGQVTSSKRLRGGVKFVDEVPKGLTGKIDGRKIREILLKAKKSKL

Nc1ncnc2c1ncn2[C@@H]1O[C@H](COP(=O)(O)OP(=O)(O)OP(=O)(O)O)[C@@H](O)[C@H]1O [ATP]
HDX-MS, apo vs ligand-bound [1]: Upon substrate binding, deuterium uptake by peptides-2 and -3 decreased in all variants
HDX-MS, apo vs ligand-bound [2]: Upon substrate binding, deuterium uptake by peptides-2 and -3 decreased in all variants
